Test results taken from patent US20240398767A1, “INHIBITORS OF THE MTDH-SND1 PROTEIN COMPLEX FOR CANCER THERAPY” (The Trustees of Princeton University, priority 2021, published 2024).
“Also recorded” adds a separate entry of the source.

How the values were obtained:
[1] = tested on: PyMT tumor immune microenvironment; experiment: Immune cell profiling of orthotopic PyMT tumors and lungs by flow cytometry; format: in vivo, FVB females; details: six weeks after treatment
Source text: FIGS. 35A-35C show C26-A6 combined with anti-PD-1 treatment reshapes the tumor immune microenvironment. For FIGS. 35A-35C, 100 k PyMT tumor cells were orthotopically injected into the mammary glands of FVB females. The mice were randomized and divided into three groups when primary tumors were established, followed by vehicle, C26-A6, or C26-A6+anti-PD-1 treatment. Six weeks after treatment, primary tumors and lung with metastatic lesions were collected for flow analysis with indicated antibodies. Anti-PD-1, 200 μg/mouse i.p. injection, twice per week for the first week and then once per week after that; C26-A6, 15 mg/kg i.v. injection, 5 days per week. n=6 mice per group. Data represent mean±SEM. Significance determined by one-way ANOVA analysis with Dunnett's test for multiple comparisons.
FIG. 35A, Percentages of CD11b^+F4/80^+, Ly6G^lowLy6C^high, Ly6G^highLy6C^low, CD3-NK1.1^+ in CD45^+ population and percentage of CD4^+FOXP3^+ in CD3^+ population are shown.
FIG. 35B, Percentages of GITR^+LAG-3^+ in CD8^+ population are shown.
Flow cytometry. Dissociated tumors or lungs were dissected and prepared as previously described^10. […]. Organoids were sequentially suspended with 0.25% trypsin-EDTA for 1.5 min, 5 mg/ml Dispase (Invitrogen), and 0.1 mg/ml DNase (Sigma) for 5 min, and 0.64% ammonium chloride for 5 min at 37° C. before filtration through a 40 μm nylon cell strainer. Tumor or lung cell suspensions were incubated with an antibody cocktail in FACS buffer (PBS+3% BSA) for 30 minutes at 4° C., washed, and resuspended in FACS buffer for flow analysis. Isotype controls were used to assess specificity of antibody labeling. […] Samples were analyzed with BD FACSDiva v6 software and data was processed with FlowJo v10 software. […]

PyMT tumor cells = experiment: Experimental lung metastasis, tail vein injection of PyMT tumor cells; format: in vivo, FVB mice; details: treatment from 3 days after injection, five weeks
Experimental: FIG. 5L, 2 k PyMT tumor cells were injected into FVB females via tail-vein. 3 days after injection, the mice were treated with vehicle or C26-A6.
FIG. 5M, 2 k PyMT tumor cells were injected into FVB females via tail-vein. 3 days after injection, the mice were treated with vehicle or C26-A6. 5 weeks later, lung metastatic nodules were counted. n=6 mice per group. Data represent mean±SEM.
To exclude the possibility that the lung metastasis reduction upon C26-A6 treatment was due to the smaller primary tumor, tail vein injection of PyMT tumor cells was performed to form experimental lung metastasis in FVB mice. Three days later, mice were divided randomly into two groups and treated with vehicle or C26-A6 respectively (FIG. 5L).

[2] = Toxicity in PyMT tumor-bearing FVB mice (body weight, ALT/AST, blood cell counts, small intestine); format: in vivo; details: 15 mg/kg i.v.
Experimental: FIG. 12D, Body weight of the mice in experiment from FIG. 5B was measured. Vehicle, n=10 mice; C26-A6, n=12 mice.
FIG. 12E, Serum from mice in experiment in FIG. 5B were collected for ALT and AST activity measurement following the standard protocol (Sigma). Three FVB females treated with 200 μl of 8% CCl4 in corn oil for 2 days served as positive control. Data represent mean±SEM. n=5 mice per group. Significance determined by one-way ANOVA analysis with Dunnett's test for multiple comparisons.
FIG. 12F, Blood samples were drawn from the heart of mice in experiment FIG. 5B, and blood cell counts were performed with the Sysemx XN-3000 Hematology System (Sysmex America, Inc.) Data represent mean±SEM. Vehicle, n=6 mice; C26-A6, n=5 mice. Significance determined by two tailed Student's t-test.
FIG. 12G, Small intestine samples were obtained from mice in experiment from FIG. 5B. H&E and Alcian blue staining was performed on processed, sliced samples. Scale bar: 200 μm.
FIG. 12H, Quantification of Alcian blue staining results from (FIG. 12G). Data represent mean±SEM. n=12 fields from 5 mice in each group. Significance determined by two tailed Student's t-test.

SCP28 xenograft tumor = SCP28 xenograft tumor model in NSG mice; format: in vivo; details: 8 weeks treatment
Experimental: FIG. 13A, NGS female mice injected with 2 k SCP28 cells orthotopically were subjected to vehicle or C26-A6 treatment after two weeks. Primary tumor volumes were measured.
FIG. 13B, 8 weeks after treatment, tumor mass was assessed. Vehicle, n=10 mice; C26-A6, n=10 mice. Size bar, 2 cm.
FIG. 13C, 8 weeks after treatment, lung metastasis was assessed. Vehicle, n=10 mice; C26-A6, n=10 mice. Size bar, 5 mm.

For `COc1ccc(Cl)cc1S(=O)(=O)Nc1cccn2nc(C)nc12` [Analog C26-A6], the “CD8+ T cell exhaustion (GITR+LAG-3+ in CD8+ population)” value [1] was “elevated CD8^+ T cell exhaustion”, the “infiltration of Ly6GhighLy6Clow sub-population of MDSCs” value [1] was “reduced” and the “infiltration of Ly6GlowLy6Chigh sub-population of MDSCs” value [1] was “significantly enhanced”. The “populations of macrophages, NK cells and regulatory T cells” value [1] was “not significantly altered”, the “lung metastasis (metastatic nodules)” value (PyMT tumor cells) was “significantly suppressed lung metastasis” and the “hematologic, GI tract, and liver toxicity / tolerability” value [2] was “no significant hematologic, GI tract, and liver toxicity; also recorded: well-tolerated in vivo with minimal toxicity”. For the same compound, the “primary tumor growth and lung metastasis” value (SCP28 xenograft tumor) was “confirmed”.
